The values that follow come from patent publication US20110269807A1, “NOVEL TREATMENT FOR AGE RELATED MACULAR DEGENERATION AND OCULAR ISCHEMIC DISEASE ASSOCIATED WITH COMPLEMENT ACTIVATION BY TARGETING 5-LIPOXYGENASE” (ALLERGAN, INC., priority 2010, published 2011).

In one data set the target is T1, 5-lipoxygenase (Homo sapiens, UniProt P09917).
T1 sequence (P09917 1-674): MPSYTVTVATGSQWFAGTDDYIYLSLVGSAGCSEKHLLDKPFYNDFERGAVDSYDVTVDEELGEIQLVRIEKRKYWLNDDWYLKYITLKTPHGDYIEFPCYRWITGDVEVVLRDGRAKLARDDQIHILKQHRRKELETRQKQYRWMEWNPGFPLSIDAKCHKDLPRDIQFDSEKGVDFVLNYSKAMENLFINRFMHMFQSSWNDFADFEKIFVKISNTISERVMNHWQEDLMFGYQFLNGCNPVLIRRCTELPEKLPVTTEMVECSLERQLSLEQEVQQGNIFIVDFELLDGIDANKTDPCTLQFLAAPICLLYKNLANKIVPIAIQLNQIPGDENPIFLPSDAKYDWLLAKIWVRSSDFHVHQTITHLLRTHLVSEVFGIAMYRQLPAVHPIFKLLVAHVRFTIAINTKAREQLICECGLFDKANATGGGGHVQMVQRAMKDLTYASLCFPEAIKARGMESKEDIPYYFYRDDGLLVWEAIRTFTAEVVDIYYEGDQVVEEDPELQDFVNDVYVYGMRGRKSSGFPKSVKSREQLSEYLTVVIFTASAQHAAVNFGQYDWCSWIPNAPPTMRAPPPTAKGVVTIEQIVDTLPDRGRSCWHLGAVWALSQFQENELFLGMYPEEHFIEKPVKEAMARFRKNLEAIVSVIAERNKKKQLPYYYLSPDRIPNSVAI
Conditions: read-out: known I.C.50 inhibition of 5-lipoxygenase; Cho et al., J Med Chem 1991; cited from earlier work.

Data set [1] deals with ARPE-19 cells. Put plainly: Complement mediated cell death assay on RPE cells in the context of oxidative stress (cell protection assay, NIH clinical collection library screen). The class given is cell-based. Particulars: for protection against cell death mediated by complement attack and oxidative stress: versus vehicle (DMSO). As to the method: ARPE-19 cells were plated at sub confluence in 96 well culture plates and cultured 24 to 48 hrs. The cells were then treated with 1:1000 dilution of each compound from the NIH clinical collection library overnight. The following day culture media was collected and set aside. The cells were washed and then treated with 0.77 mM H2O2 in hanks buffered saline solution (HBSS) for 90 minutes in the presence of fresh compound from NIH clinical collection library at a 1:1000 dilution. Cells were then washed and primed with a solution of HBSS containing 24% S-58 for 30 minutes. After the priming step cells were washed and then treated with 6% C1q deficient human serum in the original cell culture supernatant collected prior to H2O2 treatment. 90 minutes after addition of the human serum cells were labeled with the membrane impermeant nuclear dye SYTOX® orange and the number of positive cells determined. This count was then used to determine level of cell death. Quantitation and imaging were accomplished by capturing a single field per objective using a 10× objective and then counting the number of positive nuclei using metamorph image analysis software. Data was collected and expressed as % protection relative to wells containing vehicle alone (DMSO).
Data was collected and the level of protection by each compound determined by averaging the results of two independent experiments. FIG. 4 is the distribution of results indexed to compound plate (y-axis) and Protection (x-axis). […] FIG. 5 contains a list of compounds with protective properties. Of the 17 compounds selected, six compounds (Zeranol, Penciclovir, Rifapentine, Rifaximin, calcitrol, 3-[3,5-DIBROMO-4-HYDROXYBENZOYL]-2-ETHYLBENZOFURAN) were deemed to function as anti-oxidants in the assay. Of the remaining 11 compounds, four fall into a single class associated with modulation of the arachidonic acid pathway. This included Zileuton, Zafirlukast, Montelukast, and Loxoprofen. […] The targeting was both direct at 5-lipoxygenase (Zileuton) and indirect at the leukotiene receptor (Zafirlukast, Montelukast).
The observation that inhibition of 5-lipoxygenase is protective against the combined effects of oxidative stress and complement attack in ARPE-19 cells prompted us to test the 5 lipoxygenase activating protein inhibitor MK886 for its ability to protect ARPE-19 cells from oxidative stress and complement attack in vitro. The cell protection assay was carried out essentially as described in Examples 1-4.
In addition to the MK886 inhibitor we also evaluated other know 5-lipoxygenase inhibitors, including 2-TEDC and monocyclin, for their ability to protect ARPE-19 cells against oxidative stress and complement attack, using the cell protection assay described in Examples 1-4.

Data set [2] relates to ARPE-19 cells. Kind of data set: Oxidative stress followed by challenge with complement, cell death. The class given is cell-based. Conditions: then challenge with complement. The text has this: Oxidative stress and complement activation are the two most highly cited factors associated with occurrence and progression of AMD. To examine functional consequences of this relationship we treated ARPE-19 cells with either H2O2 or t-BH followed by challenge with complement. […] FACS analysis of ARPE-19 after treatment with t-Bh or H2O2 indicated minimal impact in expression levels (FIG. 3B).

For data set [3], the system named is Balb/c mice. Kind of data set: Blue light induced retinal damage, outer nuclear layer histology scoring. The class given is in vivo. Particulars: 1 mg/Kg PO BID 14 days; blue light 4800 lux 8 hours. As to the method: Balb/c mice were dosed orally (PO) at 1 mg/Kg starting 16 hours prior to blue light, and then BID for the next 14 days. Control animal received an equivalent volume of vehicle (0.5% Avicel R-91 and 0.1% Tween-80 in dH2O) to compound treated animals.
Animals were first dark adapted for 16 hours prior to blue light. Animals were then exposed to blue light at 4800 lux for 8 hours. Animals were then moved to normal housing conditions.
Eyes were immersion fixed over night at room temperature in Davidson's Fix special (BBC Biochemical, Mt Vernon, Wash.), dehydrated for 1 hr in 50% EtOH at room temperature, and then placed into 70% EtOH at room temperature. Eyes were stored in 70% EtOH until subjected to automated paraffin processing. After processing, eyes were embedded in paraffin, sectioned on a rotary microtome at 5 μm thickness through the optic nerve head parallel to the vertical meridian, and mounted on glass slides. Sections were baked onto slides, subjected to automated H&E staining, and coverslipped using permanent mounting medium. Stained tissue sections were then examined by an observed blinded to treatment regiments and scored to determine the level of damage to the outer nuclear layer.

Data set [4] has as its system Balb/c mice. Kind of data set: Blue light induced retinal damage, ERG. The format is in vivo. Particulars: 1 mg/Kg PO BID 14 days; ERG 2 weeks post blue light; p<0.05. The text has this: To further explore the protective effects of inhibition of the 5-lipoxygenase pathway, we examined the ability of 5-lipoxygenase inhibition in two in vivo models. The first in vivo model was a model of retinal oxidative stress induced by intravitreal injection of Paraquat in SOD1−/+ animals (Dong, A., et al., Superoxide dismutase 1 protects retinal cells from oxidative damage. J Cell Physiol, 2006. 208(3): p. 516-26). In addition to elevation of oxidative stress Paraquat is also known to induce activation of complement (Sun, S., et al. (2011 Mar. 18) “Complement Inhibition Alleviates Paraquat-Induced Acute Lung Injury” Am J Respir Cell Mol Biol. EPub), allowing us to examine effects of oxidative stress and complement activation in vivo similar to that observed in the in vitro RPE assay, above. The second in vivo model in which we examined the effects of 5-lipoxygenase inhibition was a rodent light induced retinal degeneration model. […]
The ERG was performed 2 weeks post blue light (4 days post OCT to allow for cataracts to clear). […] The ERG was then recorded with the animal on a heating pad (takes 7-8 minutes). Animals were revived by administration of 0.5 mg/kg atipamezole (injected i.p.), returned to their cages, and warmed using a heating pad and monitored until awake.

Each structure is given as a SMILES string. “Also recorded” adds a separate entry of the source.

As to `N#C/C(=C\c1ccc(O)c(O)c1)C(=O)OCCc1cccs1` [2-TEDC], the IC50 is 90 nM at 5-lipoxygenase and 100 nM in the data set on ARPE-19 cells [1] (Homo sapiens, FIG. 7, read-out: I.C.50 of blocking cell death within the assay system). Moreover, the “activity at the known I.C. 50 for 12 lipoxygenase” value in the data set with ARPE-19 cells [1] (concentration = known I.C.50 for 12 lipoxygenase) is reported as “little activity”. The “protection at the known I.C.50 for 15 lox” value in the data set with ARPE-19 cells [1] (concentration = known I.C.50 for 15 lox) is around 100%. Also, the “protection against cell death mediated by complement attack and oxidative stress” value (from here on “protection against cell death mediated”) in the data set on ARPE-19 cells [1] is reported as “dose dependently protected; also recorded: dose dependent protection”.
As to `OO` [H2O2], the “increase in cell death” value in the data set with ARPE-19 cells [2] is recorded as above 10 fold.
`CC(C)c1ccc2c(c1)c(SC(C)(C)C)c(CC(C)(C)C(=O)[O-])n2Cc1ccc(Cl)cc1.[Na+]` [MK886, 1-[(4-chlorophenyl)methyl]-3-[(1,1-dimethylethyl)thio]-α,α-dimethyl-5-(1-methylethyl)-1H-indole-2-propanoic acid, sodium salt]: in the data set with ARPE-19 cells [1] (sodium salt), the “protection against cell death mediated” value was “dose dependently protected; also recorded: protects; also recorded: effectively blocked cell death in a dose dependent manner”.
Take `c1ccc2c(c1)SCc1c-2[nH]c2ccccc12` [PD146176, 6,11-dihydro-[1]benzothiopyrano[4,3-b]indol]: in the data set with ARPE-19 cells [1], the “protection against cell death mediated” value is reported as “no protection; also recorded: no protective activity”.
In the case of `Cn1nccc1-c1ccc(Sc2cccc(C3(C(N)=O)CCOCC3)c2)cc1` [PF-4191834, 4-(3-(4-(1-Methyl-1H-pyrazol-5-yl)phenylthio)phenyl)-tetrahydro-2H-pyran-4-carboxamide], the “retinal structure / outer nuclear layer thickness” value in the data set with Balb/c mice [3] was “protected retinal structure and preserved photoreceptors”. Besides, in the data set with Balb/c mice [4], the “protection against loss of retinal ERG A-wave amplitude” value was “protected against the loss of ERG A-wave amplitude; also recorded: protected against functional loss”.
Consider `CC(C)(C)OO` [t-BH], for which the “increase in cell death” value with ARPE-19 cells [2] is on record as 20-30%.
